This assay deals with CB2 receptor (Homo sapiens, UniProt P34972). Put plainly: [3H]CP-55,940 radioligand competition binding, CB2. Also noted: host or cells: cell membrane preparations. To be noted: for SI: selectivity index for CB2: Ki(CB1)/Ki(CB2) ratio. A general note: Loss of bound radioactivity is the signal in a displacement assay; it reports binding, not function.
The mark [1] stands for this setting: [3H]CP-55,940 displacement, read-out: Ki (CB2).

Read-outs that look alike come from different tables or passages of the source.

Sequence of CB2 receptor (P34972 whole entry): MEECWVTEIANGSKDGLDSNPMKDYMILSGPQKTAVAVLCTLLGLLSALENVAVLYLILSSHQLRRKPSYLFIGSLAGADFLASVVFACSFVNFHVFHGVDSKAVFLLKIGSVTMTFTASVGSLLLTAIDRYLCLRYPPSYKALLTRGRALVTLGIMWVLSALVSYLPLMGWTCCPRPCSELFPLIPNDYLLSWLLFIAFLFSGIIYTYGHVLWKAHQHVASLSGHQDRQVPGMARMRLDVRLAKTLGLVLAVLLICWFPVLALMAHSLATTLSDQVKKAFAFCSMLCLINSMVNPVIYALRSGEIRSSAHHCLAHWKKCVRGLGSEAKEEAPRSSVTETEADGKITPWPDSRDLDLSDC
Method: Briefly, the bioassay is carried out using the Perkin Elmer 96-well Top Counter. […] The procedure is as follows.
In competition binding experiments, the tested compound dilutions are carried out in duplicate in TME buffer (25 mM Tris, 5 mM MgCl2, 1 mM EDTA) containing 0.1% (w/v) fatty acid free bovine serum albumin (BSA), pH 7.4. […] TME buffer and cell membrane preparations expressing CB receptors (5 μg per well) are added to a final volume of 200 μL. […] After the binding suspensions are incubated at 30° C. for 1 hr, the reaction is terminated by rapid filtration through microfiltration plates (Unifilter GF/B filterplate, PerkinElmer), followed by 5 washes with ice cold TME buffer containing 0.1% BSA on a Packard Filtermate Harvester (PerkinElmer). The plates are then dried overnight and 30 μl MicroScint 0 scintillation cocktail is added to each well of the dried filter plates. The bound radioactivity is then counted using a Perkin Elmer 96-well TopCounter. […] This assay is used for determination of the binding affinity parameters (Ki) of ligand-receptor interactions for the CB receptor.

One may read the Ki as a dissociation constant, usually derived from enzyme kinetics or from competition with a known ligand. Regarding `O=C(Cc1ccccc1)NC(NC(=O)Cc1ccccc1)c1ccc(F)cc1` [Compound 5, N,N′-((4-fluorophenyl)methylene)bis(2-phenylacetamide)], the Ki under setting [1] turned out to be 10900 nM.

With `O=C(Cc1ccccc1)NC(NC(=O)Cc1ccccc1)c1ccc(N2CCCCC2)cc1` [Compound 19, N,N′-((4-(piperidin-1-yl)phenyl)methylene)bis(2-phenylacetamide)], the “SI: selectivity index for CB2” value is >34. Besides, the inhibition constant Ki under setting [1] worked out at 595 nM.

For `O=C(Cc1ccc(Cl)cc1)NC(NC(=O)Cc1ccc(Cl)cc1)c1ccc(F)cc1` [Compound 23, N,N′-((4-fluorophenyl)methylene)bis(2-(4-chlorophenyl)acetamide)], under setting [1], the Ki was > 20000 nM.

With `CCCCCCCC(=O)N(Cc1ccc(N(CC)CC)cc1)C12CC3CC(CC(C3)C1)C2` [Compound 64, N-((3s,5s,7s)-Adamantan-1-yl)-N-(4-(diethylamino)benzyl)octanamide], under setting [1], the Ki came out at 638 nM. On the same count and under the same terms, with `CCCCCCCN(Cc1ccc(N(CC)CC)cc1)C(=O)c1ccc(N(C)C)cc1` [Compound 78, N-(4-(Diethylamino)benzyl)-4-(dimethylamino)-N-heptylbenzamide] the figure was 1280 nM; with `O=C(Cc1ccccc1)NC(NC(=O)Cc1ccccc1)c1ccc(Br)cc1` [Compound 7, N,N′-((4-bromophenyl)methylene)bis(2-phenylacetamide)], 2230 nM. In the case of `COc1ccc(C(NC(=O)Cc2ccc(Cl)cc2)NC(=O)Cc2ccc(Cl)cc2)cc1` [Compound 26, N,N′-((4-methoxyphenyl)methylene)bis(2-(4-chlorophenyl)acetamide)], the “SI: selectivity index for CB2” value is recorded as >65. Under setting [1], the inhibition constant Ki came out at 310 nM. Turning to `CCCCCC(NC(=O)Cc1ccccc1)NC(=O)Cc1ccccc1` [Compound 41, N,N′-(hexane-1,1-diyl)bis(2-phenylacetamide)], the Ki under setting [1] worked out at 18200 nM. On the same count and under the same terms, as for `O=C(Cc1ccccc1)NC(NC(=O)Cc1ccccc1)c1ccccc1F` [Compound 3, N,N′-((2-fluorophenyl)methylene)bis(2-phenylacetamide)], the figure is 35300 nM. In the case of `CCCCCCCC(=O)NC(NC(=O)CCCCCCC)c1ccc(N(CC)CC)cc1` [Compound 54, N,N′-((4-(diethylamino)phenyl)methylene)dioctanamide], the “SI: selectivity index for CB2” value is listed as >136. Further, the Ki under setting [1] was 146 nM. With `CCCCCCCN(Cc1ccc(N(CC)CC)cc1)S(=O)(=O)c1ccc(OC)cc1` [Compound 70, N-(4-(Diethylamino)benzyl)-N-heptyl-4-methoxybenzenesulfonamide], under setting [1], the Ki came to 5190 nM. `CCCCCC(=O)NC(NC(=O)CCCCC)c1ccc(N(CC)CC)cc1` [Compound 53, N,N′-((4-(diethylamino)phenyl)methylene)dihexanamide]: the “SI: selectivity index for CB2” value was >800. Under setting [1], the inhibition constant Ki is 25 nM.

In the case of `O=C(Cc1ccc(Cl)cc1)NC(NC(=O)Cc1ccc(Cl)cc1)c1ccccc1` [Compound 21, N,N′-(phenylmethylene)bis(2-(4-chlorophenyl)acetamide)], the Ki under setting [1] is > 20000 nM. The same measure, in the same setting: with `Cc1ccc(C(NC(=O)Cc2ccc(C(F)(F)F)cc2)NC(=O)Cc2ccc(C(F)(F)F)cc2)cc1` [Compound 34, N,N′-(p-tolylmethylene)bis(2-(4-(trifluoromethyl)phenyl)acetamide)] the figure was > 20000 nM.

For the compound `CCN(CC)c1ccc(CN(c2ccc(Cl)cc2)S(=O)(=O)c2ccc(C(C)C)cc2)cc1` [Compound 87, N-(4-Chlorophenyl)-N-(4-(diethylamino)benzyl)-4-isopropylbenzenesulfonamide], the Ki under setting [1] was 222 nM. Same read-out and setting: with `O=C(Cc1ccccc1)NC(NC(=O)Cc1ccccc1)c1ccc(Cl)cc1` [Compound 6, N,N′-((4-chlorophenyl)methylene)bis(2-phenylacetamide)] the figure was 3080 nM. As to `CCN(CC)c1ccc(CNC23CC4CC(CC(C4)C2)C3)cc1` [B, (3s,5s,7s)-N-(4-(Diethylamino)benzyl)adamantan-1-amine], the “SI: selectivity index for CB2” value is reported as 130. Besides, the Ki under setting [1] was found to be 20000 nM.

Take `COc1ccc(C(NC(=O)Cc2ccc(C(F)(F)F)cc2)NC(=O)Cc2ccc(C(F)(F)F)cc2)cc1` [Compound 35, N,N′-((4-methoxyphenyl)methylene)bis(2-(4-(trifluoromethyl)phenyl)acetamide)]: the Ki under setting [1] was > 20000 nM. Same read-out and setting: with `CCCCCCCN(Cc1ccc(N(CC)CC)cc1)C(=O)Cc1ccccc1` [Compound 76, N-(4-(Diethylamino)benzyl)-N-heptyl-2-phenylacetamide] the figure was 1310 nM. On the same count and under the same terms, with `CCCCC(NC(=O)Cc1ccccc1)NC(=O)Cc1ccccc1` [Compound 40, N,N′-(pentane-1,1-diyl)bis(2-phenylacetamide)] the figure was 36000 nM; with `O=C(Cc1ccc(Cl)cc1)NC(NC(=O)Cc1ccc(Cl)cc1)c1ccccc1F` [Compound 22, N,N′-((2-fluorophenyl)methylene)bis(2-(4-chlorophenyl)acetamide)], 10800 nM; with `CCN(CC)c1ccc(CN(c2ccc(C)cc2)S(=O)(=O)c2ccc(C)cc2)cc1` [Compound 94, N-(4-(Diethylamino)benzyl)-4-methyl-N-(p-tolyl)benzenesulfonamide], 5.4 nM. As to `CCN(CC)c1ccc(CNc2ccc(Cl)cc2)cc1` [G, 4-(((4-Chlorophenyl)amino)methyl)-N,N′-diethylaniline], the Ki under setting [1] is 6740 nM.

For the compound `CCCCCCCN(Cc1ccc(N(CC)CC)cc1)S(=O)(=O)Cc1ccccc1` [Compound 74, N-(4-(Diethylamino)benzyl)-N-heptyl-1-phenylmethanesulfonamide], the Ki under setting [1] is 273 nM.

Regarding `CCCCCCCN(Cc1ccc(N(CC)CC)cc1)S(=O)(=O)CCCC` [Compound 75, N-(4-(Diethylamino)benzyl)-N-heptylbutane-1-sulfonamide], under setting [1], the Ki is 680 nM. Still for that read-out and setting: with `CCCCCCCN(Cc1ccc(N(CC)CC)cc1)S(=O)(=O)c1cccc(C)c1` [Compound 68, N-(4-(Diethylamino)benzyl)-N-heptyl-3-methylbenzenesulfonamide] the figure was 2300 nM; with `CCCCCCCN(Cc1ccc(N(CC)CC)cc1)S(=O)(=O)c1ccc(C(C)C)cc1` [Compound 69, N-(4-(Diethylamino)benzyl)-N-heptyl-4-isopropylbenzenesulfonamide], 13000 nM; with `O=C(Cc1ccccc1)NC(NC(=O)Cc1ccccc1)c1ccc([N+](=O)[O-])cc1` [Compound 15, N,N′-((4-nitrophenyl)methylene)bis(2-phenylacetamide)], > 20000 nM. Take `CCCCCCCC(=O)N(CCCCCCC)Cc1ccc(N(CC)CC)cc1` [Compound 80, N-(4-(Diethylamino)benzyl)-N-heptyloctanamide]: the inhibitory constant (Ki) under setting [1] is > 20000 nM. On to `COc1ccc(C(NC(=O)Cc2ccccc2)NC(=O)Cc2ccccc2)cc1` [Compound 10, N,N′-((4-methoxyphenyl)methylene)bis(2-phenylacetamide)], for which the “SI: selectivity index for CB2” value is reported as >26. For the same compound, the Ki under setting [1] worked out at 783 nM. In the case of `O=C(Cc1ccccc1)NC(NC(=O)Cc1ccccc1)c1ccccc1C(F)(F)F` [Compound 13, N,N′-((2-(trifluoromethyl)phenyl)methylene)bis(2-phenylacetamide)], the Ki under setting [1] turned out to be 11800 nM. For the compound `O=C(Cc1ccc(Cl)cc1)NC(NC(=O)Cc1ccc(Cl)cc1)c1ccc(Cl)cc1` [Compound 24, N,N′-((4-chlorophenyl)methylene)bis(2-(4-chlorophenyl)acetamide)], the “SI: selectivity index for CB2” value is reported as >130. Further, the Ki under setting [1] came to 154 nM. As for `CCCCCCCN(Cc1ccc(N(CC)CC)cc1)C(=O)Cc1ccc(Cl)cc1` [Compound 77, 2-(4-Chlorophenyl)-N-(4-(diethylamino)benzyl)-N-heptylacetamide], the Ki under setting [1] turned out to be 696 nM. As to `CCOc1ccc(C(NC(=O)Cc2ccccc2)NC(=O)Cc2ccccc2)cc1` [Compound 11, N,N′-((4-ethoxyphenyl)methylene)bis(2-phenylacetamide)], the Ki under setting [1] was 1500 nM.

For `O=C(Cc1ccc(C(F)(F)F)cc1)NC(NC(=O)Cc1ccc(C(F)(F)F)cc1)c1ccc(C(F)(F)F)cc1` [Compound 36], the Ki under setting [1] was > 20000 nM. The same measure, in the same setting: with `O=C(Cc1ccc(C(F)(F)F)cc1)NC(NC(=O)Cc1ccc(C(F)(F)F)cc1)c1ccccc1F` [Compound 31, N,N′-((2-fluorophenyl)methylene)bis(2-(4-(trifluoromethyl)phenyl)acetamide)] the figure was > 20000 nM; with `O=C(Cc1ccc(Cl)cc1)NC(NC(=O)Cc1ccc(Cl)cc1)c1ccc([N+](=O)[O-])cc1` [Compound 29, N,N′-((4-nitrophenyl)methylene)bis(2-(4-chlorophenyl)acetamide)], > 20000 nM; with `CCCCCCCN(Cc1ccc(N(CC)CC)cc1)S(=O)(=O)c1ccc(OC(C)C)cc1` [Compound 71, N-(4-(Diethylamino)benzyl)-N-heptyl-4-isopropoxybenzenesulfonamide], > 20000 nM. Consider `CCCCCCCN(Cc1ccc(N(CC)CC)cc1)S(=O)(=O)c1ccc(F)cc1` [Compound 72, N-(4-(Diethylamino)benzyl)-4-fluoro-N-heptylbenzenesulfonamide], for which, under setting [1], the inhibitory constant (Ki) amounted to 1100 nM. For `CCCCC(=O)NC(NC(=O)CCCC)c1ccc(N(CC)CC)cc1` [Compound 52, N,N′-((4-(diethylamino)phenyl)methylene)dipentanamide], the “SI: selectivity index for CB2” value is reported as >109. Further, under setting [1], the Ki stood at 182 nM. For the compound `CCCCCCCN(Cc1ccc(N(CC)CC)cc1)S(=O)(=O)c1ccc(Cl)cc1` [Compound 73, 4-Chloro-N-(4-(diethylamino)benzyl)-N-heptylbenzenesulfonamide], the Ki under setting [1] worked out at 6740 nM.

With `O=C(Cc1ccc(C(F)(F)F)cc1)NC(NC(=O)Cc1ccc(C(F)(F)F)cc1)c1ccc(Cl)cc1` [Compound 33, N,N′-((4-chlorophenyl)methylene)bis(2-(4-(trifluoromethyl)phenyl)acetamide)], the inhibition constant (Ki) under setting [1] is > 20000 nM.

In the case of `CCN(CC)c1ccc(CN(C23CC4CC(CC(C4)C2)C3)S(=O)(=O)c2ccc(C(C)C)cc2)cc1` [Compound 62, N-((3s,5s,7s)-Adamantan-1-yl)-N-(4-(diethylamino)benzyl)-4-isopropylbenzenesulfonamide], affinity was put at a Ki of 457 nM.

These data come from US9376380B2 (University of Pittsburgh—Of the Commonwealth System of …, priority 2011, dated 2016).
